Assay results as given in PMC3177041 (Journal of Cachexia, Sarcopenia and Muscle, 2011).

Tested on: male Wistar rats
Test: chronic mild stress model, 1% sucrose consumption
Type: in vivo, rat
Conditions: stressed and control groups, 10 mg/kg once daily

body mass gain in the 5 weeks of treatment vs vehicle-treated controls: gained less body mass
SMILES: CN(C)CCCN1c2ccccc2CCc2ccccc21 [imipramine]
